Measurements as given in publication PMC12040169 (PLOS Biology, 2025).

Assay: in vitro
Conditions: human, hela cells, % viability

Structure (SMILES) | viability at 28.5 h, 10 µM [%] | viability at 28.5 h, 10 µM (bulk resorufin, single well) [%]
CCCNc1cncc(-c2cccc(O)c2)n1 [CBK065447] | 109 | 
CCOC(=O)c1c(NC(=O)CSc2nc3ccccc3s2)sc2c1CCC2 [CBK263220] | 93 | 
CCN1CCN(C(=O)CN(Cc2ccc(Cl)cc2)S(C)(=O)=O)CC1 [CBK269263] | 82.8 | 
Nc1nnc(SC/C=C/CSc2nnc(N)s2)s1 [CBK263092] | 90.3 | 
Clc1ccc(Cl)c(-c2ccc(CNCc3cccnc3)o2)c1 [CBK269720C] | 103 | 
Cc1c(CN2CCCC2(C)C(=O)NC2CCCC2)cnn1C (centres unmarked) [CBK281960] | 108 | 
Cc1nccc(C(=O)N2CCC3(C/C=C/C[C@H]4COCC[C@H]4NC(=O)CNC3=O)CC2)n1 [CBK292072] | 103 | 
CCOC(=O)CCNC(=O)C1(c2ccc(OC)cc2)CC1 [CBK161490] | 87.3 | 
COc1cccc(CCNC2CC(=O)N(c3ccc(NC(C)=O)cc3)C2=O)c1 (centres unmarked) [CBK265233] | 109 | 
Cc1cc(C[C@@H]2CCC[C@H]2NCc2cc(Cl)ccc2O)on1 [CBK282997] | 103 | 
C=CCNC(=O)C1CC2CCC1(C)C[C@@]21NC(=O)c2ccccc2N1 (some centres unmarked) [CBK284442] | 86.6 | 
CC(C#N)(NC(=O)COc1ncnc2sc3c(c12)CCC3)C1CC1 (centres unmarked) [CBK306333] | 88.1 | 
Cc1ccc(C2(O)CCN(CCNC(=O)c3cccs3)CC2)cc1 [CBK283322] | 87.8 | 
Cc1ccc(OCC(=O)NNC(=O)c2ccco2)cc1 [CBK261800] | 96.1 | 
CN1C2CCC1CC(OC(=O)c1cccnc1)C2 (centres unmarked) [CBK026000] | 100 | 
CN1CCN(S(=O)(=O)c2cccc(C(F)(F)F)c2)CC1 [CBK062425] | 103 | 
CC(C)(C)CC(NC(=O)C1CCCN(S(C)(=O)=O)C1)c1ccccc1 (centres unmarked) [CBK304563] | 90.6 | 
CC1(c2ccccc2)NC(NC2CCCCC2)=NC1=O (centres unmarked) [CBK008081] | 97.3 | 

Structure (SMILES) | viability at 28.5 h, 10 µM [%] | viability at 28.5 h, 10 µM (bulk resorufin, single well) [%]
Cc1nc(C)c(CCC(=O)Nc2ccc(N3CCOCC3)cc2)c(=O)[nH]1 [CBK306059] | 88.4 | 
Cc1noc(CN2CCN(c3ccc4nnc(C(F)(F)F)n4n3)CC2)n1 [CBK305566] | 93.3 | 
N#CCCCN1CCC(Oc2cncc(OCCN3CCOCC3)n2)C1 (centres unmarked) [CBK084495] | 103 | 
O=C(CSc1ccc(-c2ccc(-n3ccnc3)cc2)nn1)NCc1ccco1 [CBK287717] | 62.2 | 
COc1ccc(C)cc1N(C(=O)c1ccccn1)c1nc2ccccc2s1 [CBK297944] | 97.7 | 
O=C(NC(c1ccc(F)cc1)c1ccccn1)C1CCN(C(=O)c2ccno2)CC1 (centres unmarked) [CBK059705] | 99.9 | 
Clc1cc(Cl)c2[nH]c3c(c2c1)CCc1nonc1-3 [CBK025929] | 102 | 
CCc1c(C)nc2ccccc2c1S(=O)(=O)CCC(=O)OC [CBK155468T] | 96.8 | 
CN(Cc1ccc(-c2ccc(S(C)(=O)=O)cc2)nc1)C1CCN(C(=O)CC2CCCCC2)CC1 [CBK164105T] | 92.6 | 
CCC1CCCCN1C(=O)c1cccc(C)c1C (centres unmarked) [CBK081501] | 96.5 | 
CC(=O)c1ccc(-c2cnc3[nH]c(=O)n([C@@H](C)c4ccccc4)c3n2)s1 [CBK064360] | 98.3 | 
CCCCOC(=O)c1ccc(NC(=O)c2cc(-c3ccco3)nc3c2c(C)nn3C)cc1 [CBK295313] | 103 | 
Cc1cccc(CN(CCN)C(=O)NC2C[C@H]2c2ccccc2)n1 (some centres unmarked) [CBK046220C] | 120 | 
CCc1cc(C)cc(OCCOc2ccccc2C=C2C(=O)NC(=S)NC2=O)c1 [CBK263579] |  | 120
CC(C)(c1noc(C2CCOCC2)n1)S(=O)(=O)c1ccc(Br)cc1 [CBK305543] | 93.5 | 
CCN(CC)C(=O)Cn1nc(C)n2c(cc3oc(C)cc32)c1=O [CBK283609] | 93.7 | 
Cc1c(Cl)cccc1NC(=O)CSc1nnc(Cc2cccc3ccccc23)n1-c1ccccc1 [CBK266042] | 98.7 | 
